Test results as given in article PMC9023544, “Ketone-selenoesters as potential anticancer and multidrug resistance modulation agents in 2D and 3D ovarian and breast cancer in vitro models” (Scientific Reports, 2022).

Each compound was assayed on HOC (assay: Oxidation stress (ROS), Muse Oxidative Stress Kit). Conditions: 1 µM (DMSO 5% V/V), 24 h.
Assay type: cell-based, human
Procedure: Selenoesters (K3, K4, K7) were tested for their ability to generate reactive oxygen species (ROS). HOC was exposed to selenoesters in concentration of 1 µM for 24 h. DMSO (5% V/V) was used as a positive control. The required volume of DMSO (1% V/V) was added to untreated cells. ROS are essential biomolecules in cellular regulation as a part of the defence mechanisms. On the other hand, their participation in cell signalling may affect apoptosis and other death pathways. In the assay, dihydroethidium (DHE) reacts with superoxide anions by forming DNA-binding fluorophore ethidium bromide. Based on fluorescence, the cell population can be distinguished into ROS negative and ROS positive cells containing oxygen radicals.
To determine the oxidation stress potential of selected selenoesters, HOC were seeded into 24-well plates at a density 2 × 10^5 cells/mL for 24 h according to the above mentioned procedure. Afterwards, the plates were washed 1 ×with PBS and fresh DMEM medium containing compounds K3, K4, K7 (final concentration—1 µM) was added for 24 h, except for the positive and negative control. […] as the oxidation stress inductor. After incubation, the cells were washed 1× with PBS and released from the surface by using a trypsin–EDTA solution. After trypsin inhibition by medium addition, the cell suspensions were centrifuged (100×g, 5 min, 25 °C), supernatants were removed, and cell pellets resuspended in 1× assay buffer. All reagents were prepared immediately before use. Afterwards, 10 µL of the cell suspension were mixed with 190 µL of working solution (Muse Oxidative stress reagent) and stained for 30 min at 37 °C. Subsequently, the […] were analysed by Guava Muse Cell Analyzer. Oxidation stress detection was performed following the instructions provided by the manufacturer.

| Structure (SMILES) | ROS(+) cells | ROS(−) cells |
| --- | --- | --- |
| CC(=O)C[Se]C(=O)c1ccc(Br)cc1 [K3] | 29.1 ± 4.2 % | 70.8 ± 4.2 % |
| CC(=O)C[Se]C(=O)c1ccccc1C(F)(F)F [K4] | 14.5 ± 1.5 % | 85.5 ± 1.6 % |
| CC(=O)C[Se]C(=O)c1ccc(C(C)(C)C)cc1 [K7] | 22.3 ± 0.4 % | 77.7 ± 0.4 % |
